Measurements as given in patent US20230023092A1, “TREATMENT OF DEPRESSION AND OTHER VARIOUS DISORDERS WITH PSILOCYBIN” (COMPASS […], priority 2019, published 2023).

Experiments:
Format in all cases: in vivo, human
healthy subjects [1] = experiment: Scale of Social Responsibility (SSR)
Procedure: In some embodiments, the Scale of Social Responsibility (SSR) is utilized to evaluate the safety and/or efficacy of psilocybin. The SSR measures perceptions regarding the importance of ethics and social responsibility.
(§1) The Pictorial Empathy Test (PET), Reading the Mind in the Eyes Test (RMET), Scale of Social Responsibility (SSR), Social Value Orientation (SVO), and Toronto Empathy Questionnaire (TEQ) were performed. Table 20 summarizes the results of the mixed model for repeated measures (MMRM) analysis for each of the aforementioned social cognition panel scales measured on Day 7 and Day 84 after study drug administration.

healthy subjects [2] = experiment: Social Value Orientation (SVO)
Excerpt: In some embodiments, the Social Value Orientation (SVO) test is utilized to evaluate the safety and/or efficacy of psilocybin. The SVO Slider Measure has 6 primary items with 9 secondary (and optional) items. All of the items have the same general form. Each item is a resource allocation choice over a well-defined continuum of joint payoffs.
as §1

healthy subjects [3] = experiment: NEO-Five Factor Inventory (NEO-FFI)
Procedure: In some embodiments, the NEO-Five Factor Inventory (NEO-FFI) test is used to evaluate the safety and/or efficacy of psilocybin. The NEO-FFI evaluates 5 broad domains of personality—Neuroticism, Extroversion, Openness, Agreeableness and Conscientiousness.
The Neuroticism Extraversion Openness-Five Factor Inventory (NEO-FFI) and Symptom Checklist-90 Item (SCL-90) were administered. Details of the MMRM applied to the change from baseline scores for the NEO-FFI and SCL-90 are provided below in Table 2Q.

[4] = Day 7, psilocybin 10 mg - placebo
[5] = Day 7, psilocybin 25 mg - 10 mg
[6] = Day 7, psilocybin 25 mg - placebo
[7] = Day 84, psilocybin 10 mg - placebo
[8] = Day 84, psilocybin 25 mg - 10 mg
[9] = Day 84, psilocybin 25 mg - placebo

## CN(C)CCc1c[nH]c2cccc(OP(=O)(O)O)c12 [Psilocybin, psilocybin]
Healthy subjects [1]; Day 7, psilocybin 10 mg
  SSR compliance social rules change from baseline (LS mean): −0.1
  SSR fullfilling expectations change from baseline (LS mean): −0.1
  SSR global change from baseline (LS mean): −2.0
Healthy subjects [1]; [4]
  SSR compliance social rules change from baseline, LS mean difference: 0.0
  SSR fullfilling expectations change from baseline, LS mean difference: 0.1
  SSR global change from baseline, LS mean difference: 1.2
Healthy subjects [1]; Day 7, psilocybin 25 mg
  SSR compliance social rules change from baseline (LS mean): 0.0
  SSR fullfilling expectations change from baseline (LS mean): −0.0
  SSR global change from baseline (LS mean): −0.3
Healthy subjects [1]; [5]
  SSR compliance social rules change from baseline, LS mean difference: 0.1
  SSR fullfilling expectations change from baseline, LS mean difference: 0.1
  SSR global change from baseline, LS mean difference: 1.6
Healthy subjects [1]; [6]
  SSR compliance social rules change from baseline, LS mean difference: 0.1
  SSR fullfilling expectations change from baseline, LS mean difference: 0.2
  SSR global change from baseline, LS mean difference: 2.8
Healthy subjects [1]; Day 84, psilocybin 10 mg
  SSR compliance social rules change from baseline (LS mean): −0.1
  SSR fullfilling expectations change from baseline (LS mean): −0.2
  SSR global change from baseline (LS mean): −1.8
Healthy subjects [1]; [7]
  SSR compliance social rules change from baseline, LS mean difference: −0.0
  SSR fullfilling expectations change from baseline, LS mean difference: −0.1
  SSR global change from baseline, LS mean difference: 0.3
Healthy subjects [1]; Day 84, psilocybin 25 mg
  SSR compliance social rules change from baseline (LS mean): 0.0
  SSR fullfilling expectations change from baseline (LS mean): −0.0
  SSR global change from baseline (LS mean): 0.1
Healthy subjects [1]; [8]
  SSR compliance social rules change from baseline, LS mean difference: 0.1
  SSR fullfilling expectations change from baseline, LS mean difference: 0.2
  SSR global change from baseline, LS mean difference: 1.8
Healthy subjects [1]; [9]
  SSR compliance social rules change from baseline, LS mean difference: 0.1
  SSR fullfilling expectations change from baseline, LS mean difference: 0.0
  SSR global change from baseline, LS mean difference: 2.2
Healthy subjects [2]; Day 7, psilocybin 10 mg
  SVO angle change from baseline (LS mean): 1.8
  SVO type change from baseline (LS mean): 0.1
Healthy subjects [2]; [4]
  SVO angle change from baseline, LS mean difference: 3.4
  SVO type change from baseline, LS mean difference: 0.1
Healthy subjects [2]; Day 7, psilocybin 25 mg
  SVO angle change from baseline (LS mean): 0.5
  SVO type change from baseline (LS mean): 0.1
Healthy subjects [2]; [5]
  SVO angle change from baseline, LS mean difference: −1.3
  SVO type change from baseline, LS mean difference: −0.0
Healthy subjects [2]; [6]
  SVO angle change from baseline, LS mean difference: 2.1
  SVO type change from baseline, LS mean difference: 0.1
Healthy subjects [2]; Day 84, psilocybin 10 mg
  SVO angle change from baseline (LS mean): 0.1
  SVO type change from baseline (LS mean): 0.1
Healthy subjects [2]; [7]
  SVO angle change from baseline, LS mean difference: 3.4
  SVO type change from baseline, LS mean difference: 0.1
Healthy subjects [2]; Day 84, psilocybin 25 mg
  SVO angle change from baseline (LS mean): −0.9
  SVO type change from baseline (LS mean): 0.0
Healthy subjects [2]; [8]
  SVO angle change from baseline, LS mean difference: −1.0
  SVO type change from baseline, LS mean difference: −0.0
Healthy subjects [2]; [9]
  SVO angle change from baseline, LS mean difference: 2.4
  SVO type change from baseline, LS mean difference: 0.1
Healthy subjects [3]; Day 7, psilocybin 10 mg
  NEO agreeableness change from baseline, LS mean: −0.2
  NEO conscientiousness change from baseline, LS mean: −0.1
  NEO extraversion change from baseline, LS mean: 0.3
  NEO neuroticism change from baseline, LS mean: 0.2
  NEO openness change from baseline, LS mean: 0.3
Healthy subjects [3]; [4]
  NEO agreeableness change from baseline, LS mean difference: −0.4
  NEO conscientiousness change from baseline, LS mean difference: 0.4
  NEO extraversion change from baseline, LS mean difference: 0.4
  NEO neuroticism change from baseline, LS mean difference: −0.2
  NEO openness change from baseline, LS mean difference: 1.1
Healthy subjects [3]; Day 7, psilocybin 25 mg
  NEO agreeableness change from baseline, LS mean: 0.1
  NEO conscientiousness change from baseline, LS mean: 0.1
  NEO extraversion change from baseline, LS mean: 0.3
  NEO neuroticism change from baseline, LS mean: 0.2
  NEO openness change from baseline, LS mean: 0.4
Healthy subjects [3]; [5]
  NEO agreeableness change from baseline, LS mean difference: 0.4
  NEO conscientiousness change from baseline, LS mean difference: 0.3
  NEO extraversion change from baseline, LS mean difference: 0.1
  NEO neuroticism change from baseline, LS mean difference: −0.0
  NEO openness change from baseline, LS mean difference: 0.1
Healthy subjects [3]; [6]
  NEO agreeableness change from baseline, LS mean difference: −0.1
  NEO conscientiousness change from baseline, LS mean difference: 0.7
  NEO extraversion change from baseline, LS mean difference: 0.5
  NEO neuroticism change from baseline, LS mean difference: 0.2
  NEO openness change from baseline, LS mean difference: 1.2
Healthy subjects [3]; Day 84, psilocybin 10 mg
  NEO agreeableness change from baseline, LS mean: −0.9
  NEO conscientiousness change from baseline, LS mean: −1.3
  NEO extraversion change from baseline, LS mean: −0.9
  NEO neuroticism change from baseline, LS mean: 2.1
  NEO openness change from baseline, LS mean: 0.4
Healthy subjects [3]; [7]
  NEO agreeableness change from baseline, LS mean difference: −0.8
  NEO conscientiousness change from baseline, LS mean difference: 0.2
  NEO extraversion change from baseline, LS mean difference: −0.7
  NEO neuroticism change from baseline, LS mean difference: 0.3
  NEO openness change from baseline, LS mean difference: 1.1
Healthy subjects [3]; Day 84, psilocybin 25 mg
  NEO agreeableness change from baseline, LS mean: −0.9
  NEO conscientiousness change from baseline, LS mean: −0.1
  NEO extraversion change from baseline, LS mean: −0.7
  NEO neuroticism change from baseline, LS mean: 0.8
  NEO openness change from baseline, LS mean: 0.3
Healthy subjects [3]; [8]
  NEO agreeableness change from baseline, LS mean difference: 0.1
  NEO conscientiousness change from baseline, LS mean difference: 1.2
  NEO extraversion change from baseline, LS mean difference: 0.2
  NEO neuroticism change from baseline, LS mean difference: −1.3
  NEO openness change from baseline, LS mean difference: −0.7
Healthy subjects [3]; [9]
  NEO agreeableness change from baseline, LS mean difference: −0.7
  NEO conscientiousness change from baseline, LS mean difference: 1.4
  NEO extraversion change from baseline, LS mean difference: −0.5
  NEO neuroticism change from baseline, LS mean difference: −1.0
  NEO openness change from baseline, LS mean difference: 0.4
